Data set [1] is described as follows: Human liver microsome stability. Particulars: pooled human liver microsomes 0.5 mg/mL, 1 μM compound, NADPH 1 mM, 37° C., 0-60 min. It counts as in vitro ADME. The method, boiled down:
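Single incubations with human liver microsomes started with 1 mM NADPH; samples taken at 0, 5, 10, 20, 40 and 60 min, quenched in acetonitrile (1:3). Cassette LC-MS analysis with internal standard; t½ derived from slope of ln peak-area ratio versus time (k = −gradient).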
In general terms: Liver microsomes are a subcellular fraction often used to study metabolism.

Data set [2] relates to HBV (HepG2.117 cell line, inducibly HBV producing). The experiment in a line: Anti-HBV activity, intracellular HBV DNA by real-time PCR in HepG2.117 cell line. The following applies: HepG2.117 cells, 3 days of treatment. It counts as cell-based, hepatitis B virus. The method, boiled down:
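HepG2.117 cells replicate HBV under Tet-off control, without doxycycline. After induction of replication, cells were treated with serially diluted compound for 3 days, and intracellular HBV DNA was then quantified by real-time PCR with an HBV-specific primer set and probe.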
On the technique in general: Real-time PCR tracks product formation cycle by cycle.

For a further data set, the system named is HepG2 or HepG2.117 cells. The experiment in a line: Cytotoxicity, ATPlite Luminescence Assay. Particulars: 3-days incubation unless marked with *. The class given is cell-based, human. The method, boiled down: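 Viability after compound treatment is read as ATP luminescence. Exposure lasts 3 or 4 days.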
In general terms: In ATP-based viability assays light output follows the ATP content of the culture.

`CC(c1ccn(C(F)F)c(=O)c1)N1C[C@@H](C)n2nc3c(c2C1=O)CN(C(=O)c1ccc(Cl)c(C(F)(F)F)c1)[C@H](C)C3` (single isomer, unassigned) [Compound 49B, (3R,7R)-2-(4-chloro-3-(trifluoromethyl)benzoyl)-9-((S*)-1-(1-(difluoromethyl)-2-oxo-1,2-dihydropyridin-4-yl)ethyl)-3,7-dimethyl-1,2,3,4,8,9-hexahydropyrido [4′,3′:3,4]pyrazolo[1,5-a]pyrazin-10(7H)-one]: the “HLM Metabolism t1/2” value in data set [1] is more than 180 min. The EC50 (in general, the concentration needed to bring the measured effect to its halfway point) in data set [2] was 0.013 µM. In addition, in the data set with HepG2 or HepG2.117 cells, the half-maximal cytotoxic concentration (CC50) (usually the concentration at which the toxic effect on the cells reaches its halfway point) is more than 50 µM.

On to `CC(c1ccnc(OC(F)F)c1)N1C[C@@H](C)n2nc3c(c2C1=O)CN(C(=O)c1ccc(Cl)c(C(F)(F)F)c1)[C@H](C)C3` (single isomer, unassigned) [Compound 50B, (3R,7R)-2-(4-chloro-3-(trifluoromethyl)benzoyl)-9-((S*)-1-(2-(difluoromethoxy)pyridin-4-yl)ethyl)-3,7-dimethyl-1,2,3,4,8,9-hexahydropyrido[4′,3′:3,4]pyrazolo[1,5-a]pyrazin-10(7H)-one], for which the “HLM Metabolism t1/2” value in data set [1] was more than 180 min. Besides, in data set [2], the EC50 worked out at 0.024 µM. In the data set on HepG2 or HepG2.117 cells, this compound returned a CC50 of 10.2 µM.

Consider `CC(c1ccn(CC(F)(F)F)c(=O)c1)N1C[C@@H](C)n2nc3c(c2C1=O)CN(C(=O)c1ccc(Cl)c(Cl)c1)[C@H](C)C3` (single isomer, unassigned) [Compound 51B, (3R,7R)-2-(3,4-dichlorobenzoyl)-3,7-dimethyl-9-((S*)-1-(2-oxo-1-(2,2,2-trifluoroethyl)-1,2-dihydropyridin-4-yl)ethyl)-1,2,3,4,8,9-hexahydropyrido[4′,3′:3,4]pyrazolo[1,5-a]pyrazin-10(7H)-one], for which the “HLM Metabolism t1/2” value in data set [1] is more than 180 min. The compound also registered an EC50 in data set [2] of 0.028 µM. The CC50 in the data set with HepG2 or HepG2.117 cells was more than 50 µM.

As for `CC(c1cnn(C)c(=O)c1)N1C[C@@H](C)n2nc3c(c2C1=O)CN(C(=O)c1ccc(Cl)c(C(F)(F)F)c1)[C@H](C)C3` (single isomer, unassigned) [Compound 52B, (3R,7R)-2-(4-chloro-3-(trifluoromethyl)benzoyl)-3,7-dimethyl-9-((S*)-1-(1-methyl-6-oxo-1,6-dihydropyridazin-4-yl)ethyl)-1,2,3,4,8,9-hexahydropyrido [4′,3′:3,4]pyrazolo[1,5-a]pyrazin-10(7H)-one], the “HLM Metabolism t1/2” value in data set [1] is listed as more than 180 min. For the same compound, the half-maximal effective concentration (EC50) in data set [2] was 0.016 µM. In the data set with HepG2 or HepG2.117 cells, this compound yielded a half-maximal cytotoxic concentration (CC50) of more than 50 µM.

For `CC(c1cnn(C(C)C)c(=O)c1)N1C[C@@H](C)n2nc3c(c2C1=O)CN(C(=O)c1ccc(Cl)c(C(F)(F)F)c1)[C@H](C)C3` (single isomer, unassigned) [Compound 53B, (3R,7R)-2-(4-chloro-3-(trifluoromethyl)benzoyl)-9-((S*)-1-(1-isopropyl-6-oxo-1,6-dihydropyridazin-4-yl)ethyl)-3,7-dimethyl-1,2,3,4,8,9-hexahydropyrido[4′,3′:3,4]pyrazolo[1,5-a]pyrazin-10(7H)-one], in data set [1], the “HLM Metabolism t1/2” value is 70.9 min. Further, a half-maximal effect in data set [2] (EC50) was put at 0.01 µM. The same compound came in with a 50% cytotoxic concentration (CC50) in the data set with HepG2 or HepG2.117 cells of more than 50 µM.

Turning to `CC(c1cnn(C2CC2)c(=O)c1)N1C[C@@H](C)n2nc3c(c2C1=O)CN(C(=O)c1ccc(Cl)c(C(F)(F)F)c1)[C@H](C)C3` (single isomer, unassigned) [Compound 54B, (3R,7R)-2-(4-chloro-3-(trifluoromethyl)benzoyl)-9-((S*)-1-(1-cyclopropyl-6-oxo-1,6-dihydropyridazin-4-yl)ethyl)-3,7-dimethyl-1,2,3,4,8,9-hexahydropyrido[4′,3′: 3,4]pyrazolo[1,5-a]pyrazin-10(7H)-one], the “HLM Metabolism t1/2” value in data set [1] is given as 117 min. In data set [2], this compound gave an EC50 of 0.01 µM. The CC50 in the data set on HepG2 or HepG2.117 cells is more than 50 µM.

Values taken from patent publication US20240287070A1, “FUSED HETEROCYCLIC DERIVATIVES” (Janssen Sciences Ireland Unlimited Company, priority 2021, published 2024).
